The values below come from US6828320B2, “Heterocyclic compounds” (SmithKline Beecham Corporation, priority 1996, dated 2004).

For experiment [1], the target named is HB4a cell line transformed by over-expression of c-erbB-2 (Homo sapiens, UniProt P04626). As to the kind of experiment: Cell proliferation assay, HB4a erbB-2. In kind it is cell-based. The conditions noted are these: 4 days at 37° C., methylene blue staining; read-out: Cell Proliferation HB4a erbB-2. The protocol: The cell proliferation assay uses an immortalised human breast epithelial cell line (HB4a) which has been transformed by over-expression of c-erbB-2. Growth of these cells in low serum is dependent upon the c-erbB-2 tyrosine kinase activity. […] Cells are plated at 3000/ well in 96-well plates in 0.1 ml medium and allowed to attach overnight. test compound is added in 0.1 ml medium, with a final concentration of 0.5% DMSO, and the plates incubated for 4 days at 37° C. The cells are then examined microscopically for evidence of morphological detransformation and cell mass is estimated by staining with methylene blue and measuring the absorbance at 620 nm. […] Activity against a range of naturally occurring EGFr or c-erbB-2 over-expressing human tumour cell lines (BT474-breast, HN5-head and neck, N87-gastric and Calu3-lung) is assessed with selected compounds by the same methodology.

Experiment [2] has as its system HN5-head and neck tumour cell line. Nature of the experiment: Cell proliferation assay, HN5. The conditions noted are these: Homo sapiens, 96 h; same methodology, 4 days. In kind it is cell-based, human. The protocol:
(§1) The cell proliferation assay uses an immortalised human breast epithelial cell line (HB4a) which has been transformed by over-expression of c-erbB-2. Growth of these cells in low serum is dependent upon the c-erbB-2 tyrosine kinase activity. The specificity of the effect of the test compounds on tyrosine kinase dependent growth over general toxicity is assessed by comparison to an HB4a cell line which has been transfected with ras. Cells are plated at 3000/ well in 96-well plates in 0.1 ml medium and allowed to attach overnight. test compound is added in 0.1 ml medium, with a final concentration of 0.5% DMSO, and the plates incubated for 4 days at 37° C. The cells are then examined microscopically for evidence of morphological detransformation and cell mass is estimated by staining with methylene blue and measuring the absorbance at 620 nm. The results are shown in Table 1 below as the IC50 values in nM. Activity against a range of naturally occurring EGFr or c-erbB-2 over-expressing human tumour cell lines (BT474-breast, HN5-head and neck, N87-gastric and Calu3-lung) is assessed with selected compounds by the same methodology. The results are also shown in Table 1 below as the IC50 values in nM.

For experiment [3], the system named is HB4a cell line transfected with ras. Nature of the experiment: Cell proliferation assay, HB4a ras. The settings on record: Homo sapiens, HB4a, 96 h; 4 days at 37° C., methylene blue staining; general toxicity control; read-out: Cell Proliferation HB4a ras. In kind it is cell-based, human.
In experiment [4] the target is T1, c-erbB-2 (baculovirus expressed, recombinant intracellular domain) (Homo sapiens, UniProt P04626).
T1 construct: baculovirus expressed, recombinant constructs of the intracellular domains of c-erbB-2 and c-erbB-4; made in house
Nature of the experiment: Substrate phosphorylation assay, c-erbB-2. It is filed as biochemical. The conditions noted are these: read-out: Substrate Phosphorylation erbB-2. The protocol: (§2) The substrate phosphorylation assays use baculovirus expressed, recombinant constructs of the intracellular domains of c-erbB-2 and c-erbB-4 that are constitutively active and EGFr isolated from solubilised A431 cell membranes. The method measures the ability of the isolated enzymes to catalyse the transfer of the γ-phosphate from ATP onto tyrosine residues in a biotinylated synthetic peptide (Biotin-[…]. […] The reaction is stopped by the addition of EDTA (final concentration 0.15 mM) and a sample is transferred to a streptavidin-coated 96-well plate. The plate is washed and level of phosphotyrosine on the peptide is determined using a Europium-labelled antiphosphotyrosine antibody and quantified with a time-resolved fluorescence technique.

The subject of experiment [5] is Calu3-lung tumour cell line. As to the kind of experiment: Cell proliferation assay, Calu3. It is filed as cell-based, human. The conditions noted are these: Homo sapiens, Calu-3, 96 h; same methodology, 4 days. The protocol: as §1
Experiment [6] addresses T2, c-erbB-4 (baculovirus expressed, recombinant intracellular domain) (Homo sapiens, UniProt Q15303).
T2 construct: baculovirus expressed, recombinant constructs of the intracellular domains of c-erbB-2 and c-erbB-4; made in house
Nature of the experiment: Substrate phosphorylation assay, c-erbB-4. It is filed as biochemical. Here is the method:
as §2

The target in experiment [7] is T3, EGFr isolated from solubilised A431 cell membranes (Homo sapiens, UniProt P00533).
T3 construct: EGFr isolated from solubilised A431 cell membranes; endogenous in cells; host or cells: A431 cell membranes (solubilised)
As to the kind of experiment: Substrate phosphorylation assay, EGFr. It is filed as biochemical. The protocol: as §2

The test system of experiment [8] is N87-gastric tumour cell line. Nature of the experiment: Cell proliferation assay, N87. In kind it is cell-based, human. The conditions noted are these: Homo sapiens, 96 h; same methodology, 4 days. Here is the method: as §1
Setting [9] is: 30 minutes, room temperature, ATP and peptide at Km concentrations.

The structures appear in SMILES notation. Counter-ions that a name gives are not always drawn. Like-named read-outs stand apart in the source and are kept apart here.

T3 sequence (P00533 25-1210): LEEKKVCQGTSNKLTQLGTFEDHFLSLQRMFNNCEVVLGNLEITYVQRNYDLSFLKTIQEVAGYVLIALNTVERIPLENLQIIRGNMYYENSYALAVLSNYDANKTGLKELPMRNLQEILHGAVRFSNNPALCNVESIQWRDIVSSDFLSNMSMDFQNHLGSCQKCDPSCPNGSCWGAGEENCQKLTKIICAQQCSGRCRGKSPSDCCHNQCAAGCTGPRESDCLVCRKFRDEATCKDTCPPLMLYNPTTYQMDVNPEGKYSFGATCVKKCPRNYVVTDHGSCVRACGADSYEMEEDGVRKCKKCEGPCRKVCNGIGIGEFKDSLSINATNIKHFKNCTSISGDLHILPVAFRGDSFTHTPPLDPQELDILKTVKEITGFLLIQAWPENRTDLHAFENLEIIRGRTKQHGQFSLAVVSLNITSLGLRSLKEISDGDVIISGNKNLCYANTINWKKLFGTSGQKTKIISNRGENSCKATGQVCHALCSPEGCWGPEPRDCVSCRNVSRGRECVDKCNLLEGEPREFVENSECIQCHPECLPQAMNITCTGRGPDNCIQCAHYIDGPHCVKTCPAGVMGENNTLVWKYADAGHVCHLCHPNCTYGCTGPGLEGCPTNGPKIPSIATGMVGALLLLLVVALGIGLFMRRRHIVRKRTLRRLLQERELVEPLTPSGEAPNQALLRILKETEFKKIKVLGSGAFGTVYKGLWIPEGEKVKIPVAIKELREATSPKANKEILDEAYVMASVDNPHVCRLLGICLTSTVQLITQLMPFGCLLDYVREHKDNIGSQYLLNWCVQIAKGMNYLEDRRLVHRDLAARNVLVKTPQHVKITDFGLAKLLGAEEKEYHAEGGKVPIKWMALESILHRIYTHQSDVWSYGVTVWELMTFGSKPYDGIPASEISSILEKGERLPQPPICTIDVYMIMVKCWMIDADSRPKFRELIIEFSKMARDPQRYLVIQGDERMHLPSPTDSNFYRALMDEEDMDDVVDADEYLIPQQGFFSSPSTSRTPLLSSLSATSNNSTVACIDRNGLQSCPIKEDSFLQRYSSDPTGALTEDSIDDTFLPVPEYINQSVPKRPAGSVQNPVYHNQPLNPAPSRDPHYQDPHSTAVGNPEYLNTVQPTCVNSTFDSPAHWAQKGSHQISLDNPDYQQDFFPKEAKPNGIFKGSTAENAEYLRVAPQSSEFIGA
T2 sequence (Q15303 676-1308 limits assumed): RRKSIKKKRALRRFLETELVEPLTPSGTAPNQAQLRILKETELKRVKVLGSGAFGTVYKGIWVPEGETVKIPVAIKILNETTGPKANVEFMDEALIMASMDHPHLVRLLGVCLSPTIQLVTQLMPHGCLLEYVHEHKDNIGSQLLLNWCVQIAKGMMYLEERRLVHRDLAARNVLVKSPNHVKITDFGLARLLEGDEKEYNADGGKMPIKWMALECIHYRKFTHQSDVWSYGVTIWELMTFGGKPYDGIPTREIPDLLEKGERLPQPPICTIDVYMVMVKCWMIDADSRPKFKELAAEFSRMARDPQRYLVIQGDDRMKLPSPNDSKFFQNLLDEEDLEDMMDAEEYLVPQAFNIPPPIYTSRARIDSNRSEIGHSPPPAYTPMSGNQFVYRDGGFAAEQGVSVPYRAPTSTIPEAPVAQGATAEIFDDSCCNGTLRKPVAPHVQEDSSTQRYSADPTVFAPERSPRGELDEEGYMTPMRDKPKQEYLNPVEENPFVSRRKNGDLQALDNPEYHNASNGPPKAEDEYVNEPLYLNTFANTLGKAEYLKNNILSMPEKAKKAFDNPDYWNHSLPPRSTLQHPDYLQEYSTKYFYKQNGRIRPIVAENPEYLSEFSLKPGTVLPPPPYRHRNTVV
Sequence of HB4a cell line transformed by over-expression of c-erbB-2 (P04626 whole entry, change not shown): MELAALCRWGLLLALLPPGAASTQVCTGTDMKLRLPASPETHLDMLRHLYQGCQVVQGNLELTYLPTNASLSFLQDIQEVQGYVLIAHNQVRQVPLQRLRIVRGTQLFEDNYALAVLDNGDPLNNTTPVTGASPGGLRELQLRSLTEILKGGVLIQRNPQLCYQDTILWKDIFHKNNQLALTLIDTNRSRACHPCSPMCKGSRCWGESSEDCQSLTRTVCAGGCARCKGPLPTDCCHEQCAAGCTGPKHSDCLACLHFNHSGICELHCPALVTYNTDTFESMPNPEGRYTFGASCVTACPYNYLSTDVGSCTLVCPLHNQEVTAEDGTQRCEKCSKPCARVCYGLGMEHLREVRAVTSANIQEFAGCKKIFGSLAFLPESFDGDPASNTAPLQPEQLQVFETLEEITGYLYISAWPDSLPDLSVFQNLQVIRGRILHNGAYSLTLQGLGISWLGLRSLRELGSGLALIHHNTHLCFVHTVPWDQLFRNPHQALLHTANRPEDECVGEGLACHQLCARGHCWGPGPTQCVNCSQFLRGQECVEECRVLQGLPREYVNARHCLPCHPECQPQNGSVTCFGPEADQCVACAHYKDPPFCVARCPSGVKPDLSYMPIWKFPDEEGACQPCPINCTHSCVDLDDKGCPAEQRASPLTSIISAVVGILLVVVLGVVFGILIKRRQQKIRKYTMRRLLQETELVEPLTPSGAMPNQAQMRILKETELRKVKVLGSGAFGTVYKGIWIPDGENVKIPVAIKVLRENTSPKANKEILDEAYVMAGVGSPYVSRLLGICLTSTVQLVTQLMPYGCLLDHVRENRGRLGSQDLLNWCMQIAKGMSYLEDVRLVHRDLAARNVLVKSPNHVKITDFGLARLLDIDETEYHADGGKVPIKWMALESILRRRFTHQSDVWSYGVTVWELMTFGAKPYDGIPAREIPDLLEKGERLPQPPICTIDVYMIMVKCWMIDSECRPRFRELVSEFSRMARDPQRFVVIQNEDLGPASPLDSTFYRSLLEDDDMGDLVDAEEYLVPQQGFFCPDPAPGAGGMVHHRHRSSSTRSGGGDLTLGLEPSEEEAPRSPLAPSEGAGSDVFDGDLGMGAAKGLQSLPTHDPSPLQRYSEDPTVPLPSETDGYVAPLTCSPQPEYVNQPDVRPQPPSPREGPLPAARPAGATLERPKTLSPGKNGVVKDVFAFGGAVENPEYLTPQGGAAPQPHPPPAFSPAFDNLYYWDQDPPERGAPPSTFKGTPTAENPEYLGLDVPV
T1 sequence (P04626 676-1255 limits assumed): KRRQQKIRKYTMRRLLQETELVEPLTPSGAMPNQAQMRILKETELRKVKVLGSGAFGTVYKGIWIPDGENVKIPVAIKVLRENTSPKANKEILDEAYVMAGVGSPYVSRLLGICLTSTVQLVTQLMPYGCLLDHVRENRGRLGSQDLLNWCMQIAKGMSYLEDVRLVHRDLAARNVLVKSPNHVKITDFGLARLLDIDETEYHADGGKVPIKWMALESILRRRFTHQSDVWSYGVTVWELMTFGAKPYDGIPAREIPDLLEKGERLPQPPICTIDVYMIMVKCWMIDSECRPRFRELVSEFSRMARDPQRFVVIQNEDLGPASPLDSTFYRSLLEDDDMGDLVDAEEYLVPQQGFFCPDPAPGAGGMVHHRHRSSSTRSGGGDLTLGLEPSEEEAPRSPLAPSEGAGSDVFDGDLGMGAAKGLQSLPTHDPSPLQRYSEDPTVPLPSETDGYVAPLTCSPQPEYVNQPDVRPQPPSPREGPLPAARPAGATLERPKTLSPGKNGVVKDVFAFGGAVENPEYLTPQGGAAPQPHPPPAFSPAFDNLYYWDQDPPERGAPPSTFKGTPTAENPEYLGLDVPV

Take `c1ccc(COc2ccc(Nc3ncnc4ccc(-c5cccs5)cc34)cc2)cc1` [Example 2, (4-Benzyloxy-phenyl)-(6-(thiophen-2-yl)-quinazolin-4-yl)-amine]: in experiment [1], the GI50 is 1000 nM. The IC50 in experiment [2] came out at 26000 nM; in experiment [3], 8300 nM; in experiment [4] it was 21 nM; in experiment [5] it was 4600 nM; in experiment [6], 500 nM.
For the compound `c1ccc(COc2ccc(Nc3ncnc4ccc(-c5ccc(C6OCCO6)o5)cc34)cc2)cc1` [Example 5], the GI50 in experiment [1] was found to be 400 nM. Also, the IC50 was determined as 1400 nM in experiment [2]; 19000 nM in experiment [3]; 20 nM in experiment [4]; 780 nM in experiment [5]; 320 nM in experiment [6].
Regarding `C1=C(c2ccc3ncnc(Nc4ccc(OCc5ccccc5)cc4)c3c2)OCC1` [Example 7, (4-Benzyloxy-phenyl)-(6-(2,3-dihydrofuran-5-yl)-quinazolin-4-yl)-amine], in experiment [1], the GI50 was determined as 1300 nM. The IC50 is 5500 nM in experiment [2]; 12000 nM in experiment [3]; 36 nM in experiment [4]; 4700 nM in experiment [5]; 1500 nM in experiment [6].
For the compound `CN1CCN(Cc2ccc(-c3ccc4ncnc(Nc5ccc(OCc6ccccc6)cc5)c4c3)o2)CC1` [Example 10], the GI50 in experiment [1] was 1500 nM. Also, the IC50 in experiment [2] came to 2100 nM; in experiment [3], 7100 nM; in experiment [4] it was 52 nM; in experiment [5] it was 2200 nM; in experiment [6], 780 nM.
Take `CCN(CCN(C)C)Cc1ccc(-c2ccc3ncnc(Nc4ccc(OCc5ccccc5)cc4)c3c2)o1` [Example 13, N-(5-(4-(4-Benzyloxy-phenylamino)-quinazolin-6-yl)-furan-2-ylmethyl)-N-ethyl-N′,N′-dimethyl-ethane-1,2-diamine]: the GI50 in experiment [1] amounted to 450 nM. Moreover, the IC50 came out at 2200 nM in experiment [3], 350 nM in experiment [4], 300 nM in experiment [7] (setting [9]) and 2300 nM in experiment [6].
Consider `c1ccc(COc2ccc(Nc3ncnc4ccc(-c5ccc(CNc6cccnc6)o5)cc34)cc2)cc1` [Example 14, (4-Benzyloxy-phenyl)-(6-(5-(pyridin-3-ylaminomethyl)-furan-2-yl)quinazolin-4-yl)-amine], for which the GI50 in experiment [1] was determined as 680 nM. Also, the IC50 in experiment [3] came out at 5000 nM; in experiment [4], 34 nM; in experiment [7], 200 nM; in experiment [6], 1200 nM.
Take `c1ccc(COc2ccc(Nc3ncnc4ccc(-c5ccc(CNCC6CCCO6)o5)cc34)cc2)cc1` (stereo not drawn) [Example 15, (4-Benzyloxy-phenyl)-(6-(5-(((tetrahydro-furan-2-ylmethyl)-amino)-methyl)-furan-2-yl)-quinazolin-4-yl)-amine hydrochloride]: the GI50 in experiment [1] amounted to 2600 nM. Moreover, the IC50 came out at 3200 nM in experiment [3], 50 nM in experiment [4], 540 nM in experiment [7] (setting [9]) and 2300 nM in experiment [6].
`Cc1nnc(-c2ccc3ncnc(Nc4ccc(Oc5ccccc5)cc4)c3c2)o1` [Example 20, (4-Phenoxy-phenyl)-(6-(5-methyl-1,3,4-oxadiazol-2-yl)quinazolin-4-yl)-amine hydrochloride]: in experiment [1], the GI50 worked out at 6200 nM. In addition, the IC50 in experiment [3] is greater than 50000 nM; in experiment [4], 3 nM; in experiment [7] (setting [9]), 140 nM.
In the same order, the values of `Cc1nnc(-c2ccc3ncnc(Nc4ccc5c(cnn5Cc5ccccc5F)c4)c3c2)o1` [Example 21, (1-(2-Fluorobenzyl)-1H-indazol-5-yl)-(6-(5-methyl-1,3,4-oxadiazol-2-yl)-quinazolin-4-yl-amine hydrochloride] are 2300 nM, greater than 50000 nM, 9 nM and 28 nM.
Consider `Cc1nnc(-c2ccc3ncnc(Nc4ccc5c(cnn5Cc5ccccn5)c4)c3c2)o1` [Example 23, (1-Pyridin-2-ylmethyl)-1H-indazol-5-yl)-(6-(5-methyl-1,3,4-oxadiazol-2-yl)-quinazolin-4-yl)-amine hydrochloride], for which the GI50 in experiment [1] was 31000 nM. For the same compound, the IC50 in experiment [3] was greater than 50000 nM; in experiment [4], 1 nM; in experiment [7] (setting [9]), 32 nM.
In the same order, the values of `Cc1nnc(-c2ccc3ncnc(Nc4ccc5c(cnn5Cc5cccc(F)c5F)c4)c3c2)o1` [Example 24, (1-(2,3-Difluorobenzyl)-1H-indazol-5-yl)-(6-(5-methyl-1,3,4-oxadiazol-2-yl)quinazolin-4-yl)-amine hydrochloride] are 17000 nM, greater than 50000 nM, 2 nM and 15 nM.
On to `Cc1nnc(-c2ccc3ncnc(Nc4ccc(OCc5ccccc5F)c(Cl)c4)c3c2)o1` [Example 25, (3-Chloro-4-(2-fluoro-benzyloxy)-phenyl)-(6-(5-methyl-1,3,4-oxadiazol-2-yl)-s-quinazolin-4-yl)-amine hydrochloride], for which the GI50 in experiment [1] was 750 nM. Moreover, the values for the IC50 in experiment [3], in experiment [4] and in experiment [7] (setting [9]) were greater than 50000 nM, 15 nM and 22 nM, respectively.
In the case of `Cc1nnc(-c2ccc3ncnc(Nc4ccc(OCc5cccc(F)c5)c(Cl)c4)c3c2)o1` [Example 26, (3-Chloro-4-(3-fluoro-benzyloxy)-phenyl)-(6-(5-methyl-1,3,4-oxadiazol-2-yl)-quinazolin-4-yl)-amine hydrochloride], the GI50 in experiment [1] was found to be 650 nM. Also, the figures for the IC50 in experiment [3], in experiment [4] and in experiment [7] (setting [9]) were greater than 50000 nM, 7 nM and 18 nM, respectively.
For `Cc1nnc(-c2ccc3ncnc(Nc4ccc(OCc5ccccc5)cc4)c3c2)o1` [Example 27, (4-Benzyloxy-phenyl)-(6-(5-methyl-1,3,4-oxadiazol-2-yl)-quinazolin-4-yl)-amine hydrochloride] the same measures were 6500 nM, 50000 nM, 10 nM and 47 nM.
As to `Cc1nnc(-c2ccc3ncnc(Nc4ccc(OCc5ccccc5F)cc4)c3c2)o1` [Example 28, (4-(2-Fluoro-benzyloxy)-phenyl)-(6-(5-methyl-1,3,4-oxadiazol-2-yl)-quinazolin-4-yl)-amine hydrochloride], the GI50 in experiment [1] was found to be 5300 nM. Moreover, the IC50 in experiment [3] is greater than 50000 nM; in experiment [8] it was 8200 nM; in experiment [4], 7 nM; in experiment [7] (setting [9]), 50 nM.
Consider `Cc1nnc(-c2ccc3ncnc(Nc4ccc(S(=O)(=O)c5ccccc5)cc4)c3c2)o1` [Example 30, (4-Benzenesulphonyl-phenyl)-(6-(5-methyl-1,3,4-oxadiazol-2-yl)-quinazolin-4-yl)-amine hydrochloride], for which the GI50 in experiment [1] came out at 5400 nM. The IC50 in experiment [3] stood at 50000 nM; in experiment [4] it was 6 nM; in experiment [7] (setting [9]) it was 38 nM; in experiment [5], 18000 nM.
As for `Cn1cncc1-c1ccc2ncnc(Nc3ccc4c(cnn4Cc4ccccc4)c3)c2c1` [Example 38, (1-Benzyl-1H-indazol-5-yl)-(6-(3-methyl-3H-imidazol-4-yl)-quinazolin-4-yl)-amine], the IC50 is 88 nM in experiment [4], 140 nM in experiment [7] (setting [9]) and 520 nM in experiment [6].
As for `c1ccc(Cn2ncc3cc(Nc4ncnc5ccc(-c6noc(Cc7cccnc7)n6)cc45)ccc32)cc1` [Example 62], in experiment [1], the GI50 stood at 500 nM. For the same compound, the figures for the IC50 in experiment [3], in experiment [4] and in experiment [7] (setting [9]) were 3700 nM, 100 nM and 13 nM, respectively.
